Test results taken from patent publication US7183322B2, “Remedy for hypertension” (Taisho Pharmaceutical Co., Ltd., priority 2002, dated 2007).

Columns and labels:
[1] = test system: Brain microsomal Na+/Ca2+ exchanger; experiment: Brain microsomal Na+/Ca2+ exchanger (Na-dependent 45Ca uptake); format: biochemical; conditions: rat brain microsomes; read-out: Inhibitory activity against Na+/Ca2+ exchange (Na-dependent 45Ca uptake), IC50 value, Brain
Method: Method of Measuring for Brain Microsomal Na^+/Ca^2+ Exchanger
Brain microsomes (1.5 mg/ml) obtained from 8-week-old rats were pre-treated with 160 mM NaCl-containing buffer to cause Na loading into membrane vesicles. This suspension was diluted 50-fold with 20 μM ^45CaCl2-containing buffer to induce ^45Ca uptake, followed by dilution with the buffer (0° C.) to stop the reaction. The membrane vesicles were immediately collected on a nitrocellulose filter. Subsequently, ^45Ca trapped inside the membrane vesicles was determined by liquid scintillation counting. The above assay for Na^+/Ca^2+ exchange activity in brain microsomes was performed according to the procedures described in J. Biol. Chem., vol. 257, p. 5111 (1982).

[2] = test system: Dahl salt-sensitive hypertension rats; experiment: Dahl salt-sensitive hypertension rat model, systolic blood pressure; format: in vivo; conditions: for % change in blood pressure: one hour after administration, systolic
Text: (Creation of Dahl Salt-sensitive Hypertension Rat Model)
Dahl salt-sensitive hypertension rats (7 weeks old) were used in the experiment. They were fed a 4% NaCl high-salt chow (0.6% for normal chow), but were allowed to drink water without any restriction. At two weeks after high-salt loading, the animals confirmed to develop hypertension were divided into the following 4 groups for use in the experiment.
(Experimental Animal Groups)
After loading the high-salt chow for two weeks as described above, an acute experiment was performed. On the day of the experiment, the systolic blood pressure (before administration) was measured for each animal under non-anesthesia conditions using a noninvasive sphygmomanometer. The animals were then administered orally with the solvent or SEA0400(3, 10, or 30 mg/kg) and monitored over time for their systolic blood pressure.

[3] = target: T1, Canine cardiac sarcolemmal vesicle Na+/Ca2+ exchanger (Canis lupus familiaris, UniProt P23685); experiment: Canine cardiac sarcolemmal vesicle Na+/Ca2+ exchanger (Na-dependent 45Ca uptake); format: biochemical; conditions: canine cardiac sarcolemmal vesicles; read-out: Inhibitory activity against Na+/Ca2+ exchange (Na-dependent 45Ca uptake), IC50 value, Cardiac sarcolemma
T1 construct: Canine cardiac sarcolemmal vesicles (0.5 mg/ml) were prepared by centrifugal fractionation; from tissue; host or cells: canine cardiac sarcolemmal vesicles
Method: Method of Measuring for Canine Cardiac Sarcolemmal Vesicle Na^+/Ca^2+ Exchanger
Canine cardiac sarcolemmal vesicles (0.5 mg/ml) were prepared by centrifugal fractionation as described in Methods enzymology, vol. 157, p. 85 (1988) and suspended in Solution A (20 mM MOPS-Tris (pH 7.4), 160 mM NaCl or KCl), followed by incubation at room temperature for about one hour to cause Na or K loading into the vesicles. This suspension was diluted 50-fold with 20 μM ^45CaCl2-containing buffer to induce ^45Ca uptake, followed by dilution with the buffer (0° C.) to stop the reaction. The membrane vesicles were immediately collected on a nitrocellulose filter. Subsequently, ^45Ca trapped inside the membrane vesicles was determined by liquid scintillation counting. The Na^+/Ca^2+ exchange activity was evaluated by subtracting the value obtained for K loading from the value obtained for Na loading. The above assay for Na^+/Ca^2+ exchange activity in canine cardiac sarcolemmal vesicles was performed according to the procedures described in J. Biol. Chem., vol. 257, p. 5111 (1982).

[4] = target: renal cortex-derived Na+/Ca2+ exchanger (NCX1) (Rattus norvegicus, UniProt Q01728); experiment: Rat renal cortex-derived BLMVs Na+/Ca2+ exchange activity (Na-dependent 45Ca uptake); format: biochemical; conditions: read-out: Inhibitory activity against Na+/Ca2+ exchange (Na-dependent 45Ca uptake), IC50 value, Renal cortex
Method: BLMVs were prepared from rat renal cortex and assayed for Na^+/Ca^2+ exchange activity according to the procedures described in Am. J. Physiol., vol. 266, p. F785 (1994). After being excised from rats, the kidneys were placed in ice-cold sucrose buffer ([…], 0.1 mM PMSF, 10 mM Tris-HCl (pH 7.6)) and decapsulated. The isolated cortex was then finely minced in the sucrose buffer and homogenized sequentially with a Dounce-type homogenizer and a Polytron-type homogenizer, followed by centrifugation at 2500 g for 15 minutes to collect the supernatant. Centrifugation was repeated at 24000 g for 20 minutes to collect the white fluffy portion of the pellet. After further addition of the sucrose buffer, the collected fraction was homogenized with a Dounce-type homogenizer, supplemented with Percoll and then centrifuged at 30000 g for 35 minutes to collect the middle layer. After addition of buffer (100 mM KCl, 100 mM mannitol, 5 mM HEPES-Tris (pH 7.4)), centrifugation was carried out at 34000 g for 30 minutes to collect the loose white pellet (BLMVs). […] Subsequently, the filter was washed twice with 2 ml stop solution and then the amount of ^45Ca trapped inside the BLMVs was determined by using liquid scintillation method.

SMILES | IC50 [1] [µM] | % change in blood pressure ([2]; 3 mg/kg oral) [%] | Reduction in blood pressure compared with the solvent group ([2]; 10 mg/kg and 30 mg/kg groups, oral) | % change in blood pressure ([2]; 10 mg/kg oral) [%] | % change in blood pressure ([2]; 30 mg/kg oral) [%] | IC50 [3] [µM] | IC50 [4] [µM]
CCOc1ccc(Oc2ccc(OCc3cc(F)ccc3F)cc2)c(N)c1 [SEA0400, 2-[4-[(2,5-difluorophenyl)methoxy]phenoxy]-5-ethoxyaniline] | 0.2 | −9.5±1.8 | significant reduction in blood pressure | −12.0±0.9 | −12.7±3.4 | – | –
N=C(N)SCCc1ccc(OCc2ccc([N+](=O)[O-])cc2)cc1 [K-BR7943, 2-[2-[4-[nitrobenzyloxy]phenyl]ethyl]isothio-ureamethanesulfonate] | 11 | – | – | – | – | 7 | 6.8
